This experiment relates to tHTT (total HTT protein). In words: Time-resolved FRET assay, total huntingtin (tHTT) detection in cell lysates. It counts as cell-based, human. How it is done: Single-step detection of mutant huntingtin in animal and human tissues: a bioassay for Huntington's disease. Anal. […] Derivation of Huntington's disease-affected human embryonic stem cell lines, Stem Cells Dev. […] Cells were plated into 384-well collagen coated plates (10,000 cells per well) and left to adhere for 24 hours, test compounds were then added for 48 hours (37° C., 5% CO2), cells were then lysed and the lysate was transferred to a black 384-well assay plate. […] The donor/acceptor ratio between these signals indicated the relative quantities of mHTT and tHTT.

Setting [1] is: GEN020 hESCs (mutant 48 Q repeat allele), compounds added for 48 hours, TR-FRET on lysate; read-out: tHTT EC50.
Setting [2] is: Example (compounds of the instant disclosure); GEN020 hESCs, 48 hours; read-out: tHTT EC50.

Where two headings read alike, the source gives them in different places.

Usually EC50 stands for the midpoint of the concentration-response curve. As for `CCN[C@@H]1CCN(c2cnc(C(=O)Nc3cn4cc(C)nc4cc3OC)cn2)C1` [Example 345, (R)-5-(3-(ethylamino)pyrrolidin-1-yl)-N-(7-methoxy-2-methylimidazo[1,2-a]pyridin-6-yl)pyrazine-2-carboxamide], the EC50 under setting [1] is < 100 nM.
Still for that read-out and setting: the figure for `CN[C@@H]1CCN(c2cnc(C(=O)Nc3cc4cc(C)nn4cc3F)cn2)C1` [Example 177] is 100 to 500 nM; for `Cc1cn2cc(NC(=O)c3cnc(N4CC(CN(C)C5CC5)C4)nc3)cc(F)c2n1` [Example 335, 2-[3-[[cyclopropyl(methyl)amino]methyl]azetidin-1-yl]-N-(8-fluoro-2-methyl-imidazo[1,2-a]pyridin-6-yl)pyrimidine-5-carboxamide] it is 100 to 500 nM; for `CN[C@@H]1CCN(c2cnc(C(=O)Nc3cc(F)c4nn(C)cc4c3)cn2)C1` [Example 284, (R)—N-(7-fluoro-2-methyl-2H-indazol-5-yl)-5-(3-(methylamino)pyrrolidin-1-yl)pyrazine-2-carboxamide] it is 100 to 500 nM.
Still for that read-out and setting: to `Cc1cn2cc(NC(=O)c3cnc(N4CC(C5CCCCN5C)C4)cn3)nc(C)c2n1` (single isomer, unassigned) [Example 231] belongs 1000 to 10000 nM; to `CCN[C@H]1CCN(c2cnc(C(=O)Nc3cn4cc(C)nc4c(C)n3)cn2)C1` [Example 62], 500 to 1000 nM.
For the molecule `Cc1cn2cc(NC(=O)c3cnc(N4CC(CN5CCOCC5)C4)cn3)cc(F)c2n1` [Example 246, N-(8-fluoro-2-methylimidazo[1,2-a]pyridin-6-yl)-5-(3-(morpholinomethyl)azetidin-1-yl)pyrazine-2-carboxamide], the EC50 under setting [1] was 100 to 500 nM.
Turning to `COC1CN(CC2CN(c3cnc(C(=O)Nc4cc(F)c5nc(C)cn5c4)cn3)C2)C1` [Example 199], the EC50 under setting [1] is 100 to 500 nM.
With `Cc1cn2cc(NC(=O)c3cnc(N4CCNCC4)cn3)cc(F)c2n1` [drawing 1144], under setting [2], the EC50 was determined as 3100 nM.
On to `CN[C@@H]1CCN(c2cnc(C(=O)Nc3cn4cc(C)nc4c(C)c3F)cn2)C1` [Example 354, N-(7-fluoro-2,8-dimethyl-imidazo[1,2-a]pyridin-6-yl)-5-[(3R)-3-(methylamino)pyrrolidin-1-yl]pyrazine-2-carboxamide], for which the EC50 under setting [1] is < 100 nM.
Regarding `Cc1cn2cc(NC(=O)c3cnc(N4CC5CN(C6CC6)CC5C4=O)cn3)cc(F)c2n1` (centres unmarked) [Example 291], under setting [1], the EC50 fell in the range of 100 to 500 nM.
On the same count and under the same terms, to `COc1nc(NC(=O)c2cnc(N3CC(CNCCC(F)(F)F)C3)cn2)cn2cc(C)nc12` [Example 197] belongs 100 to 500 nM; to `Cc1cn2cc(NC(=O)c3cnc(N4C[C@H]5NCCO[C@@H]5C4)cn3)cc(F)c2n1` [Example 352, N-(8-fluoro-2-methylimidazo[1,2-a]pyridin-6-yl)-5-((4aR,7aR)-hexahydropyrrolo[3,4-b][1,4]oxazin-6(2H)-yl)pyrazine-2-carboxamide], 500 to 1000 nM.
Still for that read-out and setting: to `Cc1cn2cc(NC(=O)c3cnc(N4CCC(NC5CC5)C4)cn3)c(C(F)F)cc2n1` (centres unmarked) [Example 370, 5-(3-(cyclopropylamino)pyrrolidin-1-yl)-N-(7-(difluoromethyl)-2-methylimidazo[1,2-a]pyridin-6-yl)pyrazine-2-carboxamide] belongs 1000 to 10000 nM; to `CN[C@@H]1CCN(c2ncc(C(=O)Nc3cn4cc(C)nc4c(C)n3)nn2)C1` [Example 375, (R)—N-(2,8-Dimethylimidazo[1,2-a]pyrazin-6-yl)-3-(3-(methylamino)-pyrrolidin-1-yl)-1,2,4-triazine-6-carboxamide], 1000 to 10000 nM; to `Cc1cn2cc(NC(=O)c3cnc(N4CC(CN5CC[C@H](F)C5)C4)cn3)nc(C)c2n1` [Example 193], 100 to 500 nM.
Still for that read-out and setting: to `COc1nc(NC(=O)c2cnc(N3CC(CN4CC[C@H](F)C4)C3)cn2)cn2cc(C)nc12` [Example 298, 5-[3-[[(3S)-3-fluoropyrrolidin-1-yl]methyl]azetidin-1-yl]-N-(8-methoxy-2-methyl-imidazo[1,2-a]pyrazin-6-yl)pyrazine-2-carboxamide] belongs 500 to 1000 nM; to `Cc1cn2cc(NC(=O)c3cnc(N4CC[C@H](CNC5CC5)C4)cn3)nc(C)c2n1` [Example 286, (R)-5-(3-((cyclopropylamino)methyl)pyrrolidin-1-yl)-N-(2,8-dimethylimidazo[1,2-a]pyrazin-6-yl)pyrazine-2-carboxamide], 100 to 500 nM.
In the case of `Cn1cc2cc(NC(=O)c3cnc(N4CC(CCNC5CC5)C4)cn3)cc(F)c2n1` [Example 321, 5-(3-(2-(cyclopropylamino)ethyl)azetidin-1-yl)-N-(7-fluoro-2-methyl-2H-indazol-5-yl)pyrazine-2-carboxamide], under setting [1], the EC50 was 500 to 1000 nM.
Still for that read-out and setting: to `Cc1cn2cc(NC(=O)c3cnc(N(C)[C@H]4CCNC4)cn3)cc(F)c2n1` [Example 7] belongs 1000 to 10000 nM; to `Cc1cn2cc(NC(=O)c3cnc(N4CCC5NCCC54)cn3)cc(F)c2n1` (centres unmarked) [Example 38], 500 to 1000 nM; to `Cc1cn2cc(NC(=O)c3cnc(N4CC(F)C(N5CCCC5)C4)cn3)cc(F)c2n1` (single isomer, unassigned) [Example 119, N-(8-fluoro-2-methylimidazo[1,2-a]pyridin-6-yl)-5-((3′R,4'S)-4′-fluoro-[1,3′-bipyrrolidin]-1′-yl)pyrazine-2-carboxamide], 1000 to 10000 nM.
With `Cc1cn2cc(NC(=O)c3cnc(N4CCNCC4)cn3)nc(C)c2n1` [drawing 1142], the EC50 under setting [2] worked out at 1700 nM.
With `COCCN(CC1CN(c2cnc(C(=O)Nc3cc(F)c4nc(C)cn4c3)cn2)C1)C1CC1` [Example 299, 5-(3-((cyclopropyl(2-methoxyethyl)amino)methyl)azetidin-1-yl)-N-(8-fluoro-2-methylimidazo[1,2-a]pyridin-6-yl)pyrazine-2-carboxamide], the EC50 under setting [1] fell in the range of 100 to 500 nM.
`Cc1nc2c(F)cc(NC(=O)c3cnc(N4CCNC(C)C4)cn3)cc2o1` (centres unmarked) [Example 339, N-(4-fluoro-2-methylbenzo[d]oxazol-6-yl)-5-(3-methylpiperazin-1-yl)pyrazine-2-carboxamide]: the 50% effective concentration (EC50) under setting [1] fell in the range of 1000 to 10000 nM.
Same read-out and setting: the figure for `CCN[C@@H]1CCN(c2cnc(C(=O)Nc3cc4cn(C)nc4cc3OCC)cn2)C1` [Example 254, (R)—N-(6-ethoxy-2-methyl-2H-indazol-5-yl)-5-(3-(ethylamino)pyrrolidin-1-yl)pyrazine-2-carboxamide] is < 100 nM.
Same read-out and setting: to `Cc1cn2cc(NC(=O)c3cnc(N4CC[C@H](NCC5CC5)C4)cn3)nc(C)c2n1` [Example 270] belongs 100 to 500 nM; to `Cc1cn2cc(NC(=O)c3cnc(N4CCC(CNC(C)C)C4)cn3)cc(F)c2n1` (single isomer, unassigned) [Example 166], 100 to 500 nM.
Same read-out and setting: the figure for `CNC1CN(c2cnc(C(=O)Nc3cn4cc(C)nc4c(C)n3)cn2)CC1F` (single isomer, unassigned) [Example 87] is 500 to 1000 nM; for `Cc1cn2cc(NC(=O)c3cnc(N4CC[C@H](CNC5CC5)C4)cn3)ccc2n1` [Example 273] it is 100 to 500 nM; for `Cc1cn2cc(NC(=O)c3cnc(O[C@H]4CCNC[C@H]4F)cn3)cc(F)c2n1` [Example 215] it is 500 to 1000 nM.
As for `Cc1cn2cc(NC(=O)c3cnc(N4CCC(CN5CCCC5)C4)cn3)cc(F)c2n1` (centres unmarked) [Example 41], the EC50 under setting [1] is 100 to 500 nM.
Turning to `Cc1cn2cc(NC(=O)c3cnc(N4CC(CN(C)C5CC5)C4)cn3)cc(F)c2n1` [Example 202], under setting [1], the EC50 was 100 to 500 nM.
On the same count and under the same terms, the figure for `Cc1cn2cc(NC(=O)c3cnc(N4CC[C@@H](C5(NC6CC6)CC5)C4)cn3)cc(F)c2n1` [Example 170, (R)-5-(3-(1-(cyclopropylamino)cyclopropyl)pyrrolidin-1-yl)-N-(8-fluoro-2-methylimidazo[1,2-a]pyridin-6-yl)pyrazine-2-carboxamide] is 100 to 500 nM; for `Cc1cn2cc(NC(=O)c3cnc(N4CCC(NC(C)C)C4)cn3)cc(F)c2n1` (centres unmarked) [Example 28] it is 100 to 500 nM; for `CNC1(C2CN(c3cnc(C(=O)Nc4cc(F)c5nc(C)cn5c4)cn3)C2)CC1` [Example 208, N-(8-fluoro-2-methylimidazo[1,2-a]pyridin-6-yl)-5-(3-(1-(methylamino)cyclopropyl)azetidin-1-yl)pyrazine-2-carboxamide] it is 100 to 500 nM.
For the molecule `COc1cc2nn(C)cc2cc1NC(=O)c1cnc(N2CC3(CCC3NC3CC3)C2)cn1` (single isomer, unassigned) [Example 373], the EC50 under setting [1] was in the range of 1000 to 10000 nM.
Turning to `CNC1CC12CN(c1cnc(C(=O)Nc3cn4cc(C)nc4c(OC)n3)cn1)C2` (stereo in doubt) [Example 280, (R)—N-(8-methoxy-2-methylimidazo[1,2-a]pyrazin-6-yl)-5-(1-(methylamino)-5-azaspiro[2.3]hexan-5-yl)pyrazine-2-carboxamide], the EC50 under setting [1] was in the range of 100 to 500 nM.
On the same count and under the same terms, the figure for `Cc1cn2cc(NC(=O)c3cnc(NCC4CCCN(C5CC5)C4)cn3)cc(F)c2n1` (centres unmarked) [Example 365, 5-(((1-Cyclopropylpiperidin-3-yl)methyl)amino)-N-(8-fluoro-2-methylimidazo[1,2-a]pyridin-6-yl)pyrazine-2-carboxamide] is 1000 to 10000 nM.
For `COc1cn2nc(C)cc2cc1NC(=O)c1cnc(N2CC(CNC3CC3)C2)cn1` [Example 185, 5-(3-((cyclopropylamino)methyl)azetidin-1-yl)-N-(6-methoxy-2-methylpyrazolo[1,5-a]pyridin-5-yl)pyrazine-2-carboxamide], under setting [1], the half-maximal effective concentration (EC50) is < 100 nM.
`Cc1cc2cc(NC(=O)c3cnc(N4CC(CNC5CC5)C4)cn3)cc(Cl)n2n1` [Example 344, N-(7-chloro-2-methylpyrazolo[1,5-a]pyridin-5-yl)-5-(3-((cyclopropylamino)methyl)azetidin-1-yl)pyrazine-2-carboxamide]: the EC50 (read-out: tHTT EC50; GEN020 hESCs (mutant 48 Q repeat allele), compounds added for 48 hours, TR-FRET on lysate) lay within 100 to 500 nM.
